Measured values: patent publication US7087626B2, “Pyrrole derivatives as pharmaceutical agents” (Eli Lilly and Company, priority 2001, dated 2006)
Where a name gives a salt, the structure may show the parent alone.

How the values were obtained:
KDR (VEGFR2) = biological target: T1, KDR (VEGFR2) (Homo sapiens, UniProt P35968); test: KDR (VEGFR2) in vitro kinase assay; type: biochemical; conditions: 1 ug enzyme, 1 uM ATP, 30° C., 20 min
T1 construct: The 6×-HIS tagged cytoplasmic kinase domain of KDR was expressed and purified from Sf9 insect cell lysates; 6xHis; made in house; host or cells: Sf9 insect cells
T1 sequence (P35968 834-1162 limits assumed, species assumed): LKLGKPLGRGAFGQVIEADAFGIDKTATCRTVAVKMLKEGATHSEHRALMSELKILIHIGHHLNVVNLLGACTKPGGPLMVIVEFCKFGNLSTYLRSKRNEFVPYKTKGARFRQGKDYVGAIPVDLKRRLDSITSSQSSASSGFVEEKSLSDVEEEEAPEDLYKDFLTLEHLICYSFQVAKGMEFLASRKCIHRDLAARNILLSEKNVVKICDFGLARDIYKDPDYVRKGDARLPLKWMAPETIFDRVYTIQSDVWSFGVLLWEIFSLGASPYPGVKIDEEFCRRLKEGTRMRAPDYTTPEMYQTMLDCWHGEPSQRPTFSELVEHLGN
Method: KDR (VEGFR2) Purification and in vitro Kinase Assay
The 6×-HIS tagged cytoplasmic kinase domain of KDR was expressed and purified from Sf9 insect cell lysates as described above with the following modification:
1× kinase buffer for chromatography washes and elution was changed to 100 mM HEPES pH 7.5, 10 mM MnCl2 and 5 mM β-mercaptoethanol. The resulting material was approximately 40% pure and had tyrosine autophosphorylation activity.
Reactions: 1 ug enzyme in 1×KB, compound dilution series in 1×KB/16% DMSO (20 uM to 1 nM final concentration with 4% DMSO final concentration), reactions were started by adding ATP mix (1 uM ATP/1 uCi ^33P-[…]-ATP final concentrations) in 1×KB.
Reactions were incubated at 30° C. for 20 min. The reactions were stopped and quantitated using standard TCA/BSA precipitation onto Millipore FC glass fiber filter plates and by liquid scintillation counting on a MicroBeta JET.

p38α/SAPK2α = biological target: T2, p38α/SAPK2α (Homo sapiens, UniProt Q16539); test: p38α in vitro kinase assay; type: biochemical; conditions: 5 nM p38α, 62.5 uM EGFR substrate, 100 uM ATP, 30° C., 40 min
T2 construct: purchased Upstate Biotechnology 14-251
T2 sequence (Q16539 whole entry): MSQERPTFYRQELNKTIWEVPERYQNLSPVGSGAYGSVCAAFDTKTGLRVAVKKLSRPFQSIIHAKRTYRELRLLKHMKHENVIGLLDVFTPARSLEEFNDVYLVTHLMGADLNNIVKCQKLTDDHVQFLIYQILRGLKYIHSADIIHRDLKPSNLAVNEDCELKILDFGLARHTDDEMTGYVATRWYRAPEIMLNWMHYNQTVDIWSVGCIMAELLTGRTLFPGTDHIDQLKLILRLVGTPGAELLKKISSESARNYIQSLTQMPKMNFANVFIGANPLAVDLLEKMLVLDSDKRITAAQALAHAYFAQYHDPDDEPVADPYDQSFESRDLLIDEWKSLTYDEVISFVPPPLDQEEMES
Method: p38α in vitro Kinase Assay
Active p38α/SAPK2α was purchased from Upstate Biotechnology (cat#14-251). A known p38α substrate from EGFR was used in the assay (Young, et al. (1997) JBC 272: 12116-12121).
Reactions were performed in 1× kinase buffer (25 mM Tris-HCl pH 7.5, 5 mM β-glycerophosphate, 2 mM DTT, 0.1 mM Na3VO4, 10 mM MgCl2, 1 uM Microcystin) with 5 nM p38α, 62.5 uM substrate, 40 uM to 0.2 nM compound dilution series in 1×KB/16% DMSO (final 4% DMSO concentration). Reactions were started by addition of 100 uM ATP (final concentration) with 1 uCi ^33P-γ-ATP in 1×KB and incubated at 30° C. for 40 min. Reactions were stopped with H3PO4 and quantitated on Millipore PH phosphocellulose filter plates by liquid scintillation counting on a MicroBeta JET.

[1] = test system: TGF-β dependent luciferase production in Mv1Lu C1 cells (p3TP-Lux reporter); test: MV1LU p3TP-Lux assay; type: cell-based; conditions: TGF-β1 10 pM, 16-20 hrs
From the text: A stable Mv1Lu clone (C1) containing the p3TP-Lux reporter was created by standard transfection and puromycin selection protocols. This stable clone was used to screen the example compounds for their ability to inhibit TGF-β dependent luciferase production as briefly described below: • 1. Plated Mv1Lu C1 cells in Wallac™ Black Isoplates • 2. Allowed cells to adhere overnight. • 3. Removed media and replaced with 0.5% FBS DMEM media • 4. Added the compound dilution series in 0.5% FBS/DMEM containing 1% DMSO such that the final compound concentration ranged from 20 uM to 0.1 nM and the final DMSO concentration was 0.2%. • 5. Incubated at 37° C./5% CO2 for 2 hrs. • 6. Added 0.5% FBS/DMEM as control or TGF-β1 diluted in 0.5% FBS/DMEM (final concentration of 10 pM) to the −/+ TGF-β wells respectively • 7. Incubated for 16-20 hrs. at 37° C./5% CO2 • 8. Removed media and rinsed 1× with PBS. • 9. Removed PBS and lysed the cells with 1× Passive Lysis Buffer (Promega) at room temperature. • 10. Counted relative luciferase activity on the MicroBeta JET by injecting Luciferase Assay Reagent II (PROMEGA).
The use of the above assay in measuring TGF-β responsive activity is described in Wrana, et al. Cell 71: 1003-1014 (1992).

[2] = biological target: T3, TGF-β Type I (RIT204D) receptor (Homo sapiens, UniProt P36897, T204D); test: TGF-β Receptor I (RIT204D) in vitro kinase reaction; type: biochemical; conditions: 6×-HIS cytoplasmic kinase domain, 4 uM ATP, 30° C., 1 hr
T3 construct: The 6×-HIS tagged cytoplasmic kinase domain of each receptor was expressed and purified from Sf9 insect cell lysates; 6xHis; made in house; host or cells: Sf9 insect cells
T3 sequence (P36897 148-503 T204D limits assumed): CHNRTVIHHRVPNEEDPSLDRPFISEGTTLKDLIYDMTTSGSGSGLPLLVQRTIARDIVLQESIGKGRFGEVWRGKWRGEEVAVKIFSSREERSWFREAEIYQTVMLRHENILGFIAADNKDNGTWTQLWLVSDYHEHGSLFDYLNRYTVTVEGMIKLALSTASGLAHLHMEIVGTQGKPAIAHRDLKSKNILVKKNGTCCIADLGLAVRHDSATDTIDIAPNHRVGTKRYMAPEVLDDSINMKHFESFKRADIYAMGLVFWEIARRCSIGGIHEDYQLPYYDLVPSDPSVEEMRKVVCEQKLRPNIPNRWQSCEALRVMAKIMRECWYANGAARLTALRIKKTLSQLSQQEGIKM
Method: TGF-β Receptor I and II Purification and in vitro Kinase Reactions
For TGF-β Type I (RIT204D) and Type II (RII WT) Receptors: The 6×-HIS tagged cytoplasmic kinase domain of each receptor was expressed and purified from Sf9 insect cell lysates as briefly described below:
Cell pellets after 48-72 hrs of infection were lysed in lysis buffer (LB: 50 mM Tris pH 7.5, 150 mM NaCl, 50 mM NaF, 0.5% NP40 with freshly added 20 mM, β-mercaptoethanol, 10 mM imidazole, 1 mM PMSF, 1×EDTA-free Complete Protease Inhibitor (Boehringer Mannheim).
Reactions: 170-200 nM enzyme in 1×KB, compound dilution series in 1×KB/16% DMSO (20 uM to 1 nM final concentration with 4% DMSO final concentration), reactions started by adding ATP mix (4 uM ATP/1 uCi ^33P-[…]-ATP final concentrations) in 1×KB.
Reactions were incubated at 30° C. for 1 hr RIT204D or 40 min for RII WT. Reactions were stopped and quantitated using standard TCA/BSA precipitation onto Millipore FB glass fiber filter plates and by liquid scintillation counting on a MicroBeta JET.

Question: `NCCCOc1ccc2c(-c3c(-c4ccccn4)nn4c3CCC4)ccnc2c1` [3-[4-(2-pyridin-2-yl-5,6-dihydro-4H-pyrrolo[1,2-b]pyrazol-3-yl)-quinolin-7-yloxy]-propylamine] was tested. Which IC50 (KDR (VEGFR2)) did it give?
Answer: < 20 µM

Question: For `c1ccc(-c2nn3c(c2-c2ccnc4cc(OCCCn5ccnn5)ccc24)CCC3)nc1` [4-(2-Pyridin-2-yl-5,6-dihydro-4H-pyrrolo[1,2-b]pyrazol-3-yl)-7-(3-[1,2,3]triazol-1-yl-propoxy)-quinoline], which IC50 (KDR (VEGFR2)) is on record?
Answer: < 20 µM

Question: Which IC50 (KDR (VEGFR2)) does the source give for `c1ccc(-c2nn3c(c2-c2ccnc4cc(OCCCN5CCCC5)ccc24)CCC3)nc1` [4-(2-Pyridin-2-yl-5,6-dihydro-4H-pyrrolo[1,2-b]pyrazol-3-yl)-7-(3-pyrrolidin-1-yl-propoxy)-quinoline] here?
Answer: < 20 µM

Question: With `Oc1ccc2c(-c3c(-c4ccccn4)nn4c3CCC4)ccnc2c1` [4-(2-Pyridin-2-yl-5,6-dihydro-4H-pyrrolo[1,2-b]pyrazol-3-yl)-quinolin-7-ol] as the compound, how does the IC50 (KDR (VEGFR2)) read?
Answer: < 20 µM

Question: `CC(=O)NCCNC(=O)c1ccc2c(-c3c(-c4ccccn4)nn4c3CCC4)ccnc2c1` [4-(2-Pyridin-2-yl-5,6-dihydro-4H-pyrrolo[1,2-b]pyrazol-3-yl)-quinoline-7-carboxylic acid (2-acetylamino-ethyl)-amide] was tested. Which IC50 (KDR (VEGFR2)) did it give?
Answer: < 20 µM

Question: `c1ccc(-c2nn3c(c2-c2ccnc4ccccc24)OCC3)nc1` [4-(6-Pyridin-2-yl-2,3-dihydro-pyrazolo[5,1-b]oxazol-7-yl)-quinoline dioxylate salt] was tested. Which IC50 (KDR (VEGFR2)) did it give?
Answer: < 20 µM

Question: For `Cc1cccc(-c2nn3c(c2-c2ccnc4cc(OCCCN5CCOCC5)ccc24)CCC3)n1` [4-[2-(6-Methyl-pyridin-2-yl)-5,6-dihydro-4H-pyrrolo[1,2-b]pyrazol-3-yl]-7-(3-morpholin-4-yl-propoxy)-quinoline], which IC50 (KDR (VEGFR2)) is on record?
Answer: < 20 µM

Question: `Cc1cccc(-c2nn3c(c2-c2ccnc4cc(C(=O)NCCCN(C)C)ccc24)CCC3)n1` [4-[2-(6-Methyl-pyridin-2-yl)-5,6-dihydro-4H-pyrrolo[1,2-b]pyrazol-3-yl]-quinoline-7-carboxylic acid (3-dimethylamino-propyl)-amide] was tested. Which IC50 (KDR (VEGFR2)) did it give?
Answer: < 20 µM

Question: For `COC(=O)c1ccc2c(-c3c(-c4cccc(C)n4)nn4c3CCC4)ccnc2c1` [4-[2-(6-Methyl-pyridin-2-yl)-5,6-dihydro-4H-pyrrolo[1,2-b]pyrazol-3-yl]-quinoline-7-carboxylic acid methyl ester], which IC50 (KDR (VEGFR2)) is on record?
Answer: < 20 µM

Question: For `COC(=O)c1ccc2c(-c3c(-c4ccccn4)nn4c3CCC4)ccnc2c1` [4-[2-Pyridin-2-yl-5,6-dihydro-4H-pyrrolo[1,2-b]pyrazol-3-yl]-quinoline-7-carboxylic acid methyl ester], which IC50 (KDR (VEGFR2)) is on record?
Answer: < 20 µM

Question: What about the IC50 (p38α/SAPK2α) of the same compound?
Answer: < 20 µM

Question: How did the IC50 [1] turn out when `Cc1cccc(-c2nn3c(c2-c2ccc(F)cc2)CC(c2ccc(Cl)cc2)C3)n1` (stereo not shown) [5-(4-Chloro-phenyl)-3-(4-fluoro-phenyl)-2-(6-methyl-pyridin-2-yl)-5,6-dihydro-4H-pyrrolo[1,2-b]pyrazole] was run?
Answer: < 20 µM

Question: `Cc1cccc(-c2nn3c(c2-c2ccnc4ccc(-c5ccc6c(c5)OCO6)cc24)CCC3)n1` [6-Benzo[1,3]dioxol-5-yl-4-[2-(6-methyl-pyridin-2-yl)-5,6-dihydro-4H-pyrrolo[1,2-b]pyrazol-3-yl]-quinoline] was tested. Which IC50 [1] did it give?
Answer: < 20 µM

Question: Which IC50 [1] does the source give for `c1ccc(-c2nn3c(c2-c2ccnc4cc(OCCCN5CCCCCC5)ccc24)CCC3)nc1` [7-(3-azepan-1-yl-propoxy)-4-(2-pyridin-2-yl-5,6-dihydro-4H-pyrrolo[1,2-b]pyrazol-3-yl)-quinoline] here?
Answer: < 20 µM

Question: For `Cc1cccc(-c2nn3c(c2-c2ccnc4cc(OCCCCl)ccc24)CCC3)n1` [7-(3-chloro-propoxy)-4-[2-(6-methyl-pyridin-2-yl)-5,6-dihydro-4H-pyrrolo[1,2-b]pyrazol-3-yl]-quinoline], which IC50 [1] is on record?
Answer: < 20 µM

Question: `Cc1cccc(-c2nn3c(c2-c2ccnc4c(F)cccc24)CCC3)n1` [8-Fluoro-4-[2-(6-methyl-pyridin-2-yl)-5,6-dihydro-4H-pyrrolo[1,2-b]pyrazol-3-yl]-quinoline] was tested. Which IC50 [1] did it give?
Answer: < 20 µM

Question: With `CN(CCCOc1ccc2c(-c3c(-c4ccccn4)nn4c3CCC4)ccnc2c1)Cc1ccccc1` [Benzyl-methyl-{3-[4-(2-pyridin-2-yl-5,6-dihydro-4H-pyrrolo[1,2-b]pyrazol-3-yl)-quinolin-7-yloxy]-propyl}-amine] as the compound, how does the IC50 (KDR (VEGFR2)) read?
Answer: < 20 µM

Question: `CCN(CC)CCCOc1ccc2c(-c3c(-c4cccc(C)n4)nn4c3CCC4)ccnc2c1` [Diethyl-(3-{4-[2-(6-methyl-pyridin-2-yl)-5,6-dihydro-4H-pyrrolo[1,2-b]pyrazol-3-yl]-quinolin-7-yloxy}-propyl)-amine] was tested. Which IC50 (KDR (VEGFR2)) did it give?
Answer: < 20 µM

Question: How did the IC50 [2] turn out when `CN(C)C(=O)c1cccc(Oc2ccc3c(-c4c(-c5ccccn5)nn5c4CCC5)ccnc3c2)c1` [N,N-Dimethyl-3-[4-(2-pyridin-2-yl-5,6-dihydro-4H-pyrrolo[1,2-b]pyrazol-3-yl)-quinolin-7-yloxy]-benzamide] was run?
Answer: < 20 µM

Question: And the IC50 (KDR (VEGFR2))?
Answer: < 20 µM

Question: Which IC50 [1] does the source give for `Cc1cccc(-c2nn3c(c2-c2ccnc4cc(CCC(=O)N(C)C)ccc24)CCC3)n1` [N,N-Dimethyl-3-{4-[2-(6-methyl-pyridin-2-yl)-5,6-dihydro-4H-pyrrolo[1,2-b]pyrazol-3-yl]-quinolin-7-yl}-propionamide] here?
Answer: < 20 µM

Question: For `OCc1cccc(-c2nn3c(c2-c2ccnc4ccccc24)CCC3)n1` [[6-(3-Quinolin-4-yl-5,6-dihydro-4H-pyrrolo[1,2-b]pyrazol-2-yl)-pyridin-2-yl]-methanol], which IC50 [1] is on record?
Answer: < 20 µM
